These results are taken from patent US20240376057A1, “2,4-DIOXO-1,2,3,4-TETRAHYDROPYRIMIDINE DERIVATIVES AND THEIR USE IN THE TREATMENT OF TUMORS” (ISTITUTO PASTEUR ITALIA, priority 2021, published 2024).

In one data set the test system is LDHA enzyme. Description: LDHA enzymatic activity assay: rate of NADH consumption after pyruvate addition, spectrophotometry at 340 nm, in Med1-MB cell supernatant. The format is biochemical, mouse. More on the design: key to LDH Inhibition (relative inhibitory activity): *** strong; ** middle; * weak. The settings on record: dose of 100 μM. As to the method: To evaluate whether the observed anti-proliferative effect of IPI/01.LF and derivatives was a specific consequence of the inhibitory activity on the LDHA enzyme, the inventor performed enzymatic activity assays measuring the rate of NADH consumption following the addition of pyruvate by spectrophotometry at […], as previously described [Miskimins W K, Ahn H J, Kim J Y, Ryu S, Jung Y S, Choi J Y. Synergistic anti-cancer effect of phenformin and oxamate. PLoS One. 2014; 9(1):e85576.].
1×10^5 Med1-MB cells were harvested, suspended in 0.1M KH2PO4 (pH 7.2), 2 mM EDTA and 1 mM dithiothreitol (DTT), sonicated in 300 μL assay buffer (50 mmol/L potassium phosphate, pH 7.4), and centrifuged at 10,000 g for 10 minutes at 4° C. The supernatant was added to 50 mM potassium phosphate (pH 7.4), 2 mM pyruvate, and 20 µM NADH. Absorbance was measured over 10 minutes at 340 nm using a spectrophotometer.

A further data set deals with Panc1 cells. Description: Panc1 pancreatic tumor cell proliferation, Trypan Blue exclusion. The format is cell-based, human. The text has this: The inventor tested compound #1-IPI/01.LF on the proliferation of human pancreatic ductal adenocarcinoma (PDAC) Panc1 cells (American Tissue Cell Culture (ATCC, Manassas, VA, USA); product code: ATCC® CRL-1469™) a human tumor cell line showing a high glycolytic rate (Liu L, Gong L, Zhang Y, Li N. Glycolysis in Panc-1 human pancreatic cancer cells is inhibited by everolimus Experimental and therapeutic medicine (2013) 5: 338-342).
PANC-1 cells were maintained in DMEM supplemented with 10% FBS and 100 units of penicillin/streptomycin. After 72 h, cell proliferation was assayed by Trypan Blue exclusion method. IC50 value was determined by generating a dose-response curves by non-linear regression. Data are expressed as the mean±SD of three independent experiments, each performed in triplicate.

The test system of a further data set is Panc1 tumor xenograft. Description: Panc1 luciferase xenograft in immunodeficient nude (nu/nu) mice: caliper tumor volume, luminescence, body weight. The format is in vivo, mouse. To be noted: for tumor growth in treated mice: 20 mg/Kg in corn oil, intraperitoneally every two days, vs vehicle. As to the method:
To evaluate the in vivo therapeutic effects of compound IPI/01.LF studies on immunodeficient nude (nu/nu) mouse models xenografted with the human pancreatic tumor cells Panc1 were performed.
Panc1 cells were stably transduced with 5 MOI of a lentivirus expressing the luciferase gene (pLenti CMV Puro LUC (w168-1)). The lentiviral vector was purchased from Addgene, Watertown, MA 02472 USA (plasmid #17477); Campeau E, et al A versatile viral system for expression and depletion of proteins in mammalian cells PLoS One (2009) 4(8):e6529.
Stably transduced Panc1 cells were subcutaneously implanted in immunocompromised Balb/C nude athymic mice. When the tumors reached the volume of 200 mm^3, mice were treated with either 20 mg/kg of compound IPI/01.LF dissolved in corn oil or with corn oil (vehicle) alone and injected intraperitoneally every two days. Tumor growth was monitored with a caliper every other day. Data are expressed as the mean±SD of three independent experiments, each performed in triplicate.
Since the grafted Panc1 tumor cells express the ectopic luciferase reporter gene, tumor luminescence was used to monitor the tumor growth. Luminescence was measured using IVIS Lumina III In Vivo Imaging System (PerkinElmer).
Mice were intraperitoneally injected with luciferin (RediJect D-Luciferin Bioluminescent Substrate, PerkinElmer) and analyzed by photon emission (bioluminescence).
L of luciferin (15 mg/mL stock)/gram of mouse body weight were injected in the lower left abdominal quadrant of xenografted Balb/C mice with a 25 gauge needle. After 10 minutes, animals were anesthetized with a mixture of oxygen gas and vaporized isoflurane. Once the animals were fully anesthetized, they were positioned within the animal imaging cassette for image acquisition. Data were analyzed utilizing the LivingImage software. Image acquisition was performed at the beginning (T=0) and at the end (T=17) of the experiment and body weights (g) of mice at time of sacrifice were determined.

A further data set deals with Med1-MB cells. Description: Med1-MB tumor cell proliferation, Trypan Blue exclusion count. The format is cell-based, mouse. The settings on record: for Growth Inhibition (relative inhibitory activity): 72 h treatment. More on the design: key to Growth Inhibition (relative inhibitory activity): *** strong; ** middle; * weak. On the procedure:
Med1-MB cells (a mouse medulloblastoma cell line kindly provided by Dr Yoon-Jae Cho, Stanford, CA USA and disclosed in Hayden Gephart et al. Journal of Neuro-Oncology (2013) volume 115, pages 161-168) were maintained in DMEM supplemented with 10% FBS and 100 units of penicillin/streptomycin.
Med1-MB cells were cultured in Dulbecco's modified Eagle medium (DMEM) supplemented with 10% FBS, 1 mM penicillin-streptomycin and 1 mM glutamine in a humidified incubator at 37° C. and 5% CO2. […] After 72 hours, cells were trypsinized and counted by trypan blue exclusion method.
To evaluate the effect on tumor growth of compound IPI/01.LF, and derivatives, 1×10^4 Med1-MB cells were seeded in 12-well plate and incubated overnight at 37° C. in a humidified incubator. After 24 h, cells were treated with increasing concentrations of compounds for 72 h. At the end of the experiment, cell proliferation was assayed by Trypan Blue exclusion method. IC50 values were determined by generating a dose-response curves by non-linear regression. Data are expressed as the mean±SD of three independent experiments, each performed in triplicate.

Each structure is given as a SMILES string.

For the compound `O=C(Nc1ccccc1)c1c[nH]c(=O)n(Cc2ccccc2F)c1=O` [#1, 2,4-dioxo-N-phenyl-3-(2-fluorobenzyl)-1,2,3,4-tetrahydropyrimidine-5-carboxamide], the “LDH Inhibition (relative inhibitory activity)” value in the data set with LDHA enzyme is recorded as “***”. Further, in the data set on LDHA enzyme, the “inhibitory effect on LDHA enzymatic activity” value is “marked inhibitory effect”. The IC50 in the data set with Panc1 cells (Homo sapiens, PANC-1, Panc1 cells, 72 h, non-linear regression) was about 23 µM; in the data set with Med1-MB cells (Mus musculus, 72 h, non-linear regression), about 29 µM. Moreover, in the data set on Panc1 cells (Panc1 cells), the “IC50 range, cell proliferation” value is “within the micromolar range”. The “concentration times lower than oxamate for comparable ability to reduce tumor growth” value in the data set on Panc1 cells (in vitro, vs oxamate) is over 700 times. The “tumor growth in treated mice” value in the data set with Panc1 tumor xenograft is listed as “did not grow at all”; in the data set on Panc1 tumor xenograft (listed as IPI/01.LF), “significantly lower”. Besides, the weight of mice result in the data set on Panc1 tumor xenograft (20 mg/Kg, T=0 to T=17) is “unchanged”. Also, the “tumor luminescent light signal over time” value with Panc1 tumor xenograft (20 mg/Kg, T=0 vs T=17 days, IVIS Lumina III) is listed as “significant regression over time”. In addition, in the data set with Panc1 tumor xenograft (20 mg/Kg, end of experiment), the “tumor mass smaller in treated mice compared to controls at end of experiment” value stood at 2.5 fold. Besides, the “mean volume of tumors at end of treatment compared to controls” value in the data set on Panc1 tumor xenograft (20 mg/kg, end of treatment) is on record as “significantly reduced”. Besides, the “Growth Inhibition (relative inhibitory activity)” value with Med1-MB cells is “***”. In the data set on Med1-MB cells (vs oxamate), the “values times lower than those obtained with oxamate” value was “approximately 700 times”.

In the case of `O=C(Nc1cccc(Cl)c1)c1c[nH]c(=O)n(Cc2ccccc2)c1=O` [#2, 2,4-Dioxo-3-benzyl-N-(3-chlorophenyl)-1,2,3,4-tetrahydropyrimidine-5-carboxamide], in the data set on LDHA enzyme, the “LDH Inhibition (relative inhibitory activity)” value is “*”. Besides, the “Growth Inhibition (relative inhibitory activity)” value in the data set with Med1-MB cells is “*”.

For the compound `O=C(Nc1ccccc1F)c1c[nH]c(=O)n(Cc2ccc(F)cc2)c1=O` [#3, 2,4-Dioxo-3-(4-fluorobenzyl)-N-(2-fluorophenyl)-1,2,3,4-tetrahydropyrimidine-5-carboxamide], the “LDH Inhibition (relative inhibitory activity)” value in the data set on LDHA enzyme is given as “**”. The “Growth Inhibition (relative inhibitory activity)” value in the data set on Med1-MB cells is recorded as “**”.

On to `O=C(Nc1ccccc1Cl)c1c[nH]c(=O)n(Cc2ccccc2)c1=O` [#4, 2,4-Dioxo-3-benzyl-N-(2-chlorophenyl)-1,2,3,4-tetrahydropyrimidine-5-carboxamide], for which the “LDH Inhibition (relative inhibitory activity)” value in the data set on LDHA enzyme is “***”. Further, the “Growth Inhibition (relative inhibitory activity)” value in the data set with Med1-MB cells was “***”.

On to `NC(=O)c1ccc(NC(=O)c2c[nH]c(=O)n(Cc3ccccc3)c2=O)cc1` [#6, 2,4-Dioxo-3-benzyl-N-(4-carboxamidophenyl)-1,2,3,4-tetrahydropyrimidine-5-carboxamide], for which, in the data set on LDHA enzyme, the “LDH Inhibition (relative inhibitory activity)” value is given as “***”. In addition, the “Growth Inhibition (relative inhibitory activity)” value in the data set with Med1-MB cells was “***”.

In the case of `COc1ccc(Cn2c(=O)[nH]cc(C(=O)Nc3ccccc3Cl)c2=O)cc1` [#7, 2,4-Dioxo-3-(4-methoxybenzyl)-N-(2-chlorophenyl)-1,2,3,4-tetrahydropyrimidine-5-carboxamide], the “LDH Inhibition (relative inhibitory activity)” value in the data set with LDHA enzyme is on record as “***”. Further, in the data set with Med1-MB cells, the “Growth Inhibition (relative inhibitory activity)” value is “***”.

For `NC(=O)C(=O)O` [oxamate, reference compound], the “concentration lowering in vitro proliferation” value with Med1-MB cells (72 h) was over 20 mM.

The IC50 is the midpoint of a concentration-inhibition curve.
